Assay results: US9181231B2, “Pyruvate kinase activators for use for increasing lifetime of the red blood cells and treating anemia” (AGIOS PHARMACEUTICALS, INC, priority 2011, dated 2015)

Experiments:
Assay type in all cases: biochemical
Details in all cases: compound at 1 μM
[1] = target: PKR R510Q (Homo sapiens, UniProt P30613, R510Q); assay: PKR R510Q Single Point Percent Activation Assay
Procedure: PKR R510Q Single Point Percent Activation Assay
(§1) A compound described herein was diluted with DMSO and tested at 1 μM concentration. The enzyme was diluted in 1× Buffer: (100 mM KCl, 50 mM Tris 7.5, 5 mM MgCl2, 1 mM DTT, 0.03% BSA). 2 μL of compound solution was first added into wells, and then 180 μL of enzyme solution was added. Assays were assembled except for ADP, and plates were stored for 60 minutes at RT. 20 μL ADP was added to start the assay and assay output was evaluated using OD340 at SpectraMax. The assay was run at room temperature.
PKR R510Q (40 ng/well), Tris pH 7.5 (50 mM), KCl (100 mM), MgCl2 (5 mM), ADP (0.2 mM), PEP (0.11 mM), NADH (180 μM), LDH (0.5 units, Sigma 59023), DTT (1 mM) and BSA (0.03%).

[2] = target: PKR R532W (Homo sapiens, UniProt P30613, R532W); assay: PKR R532W Single Point Percent Activation Assay
Procedure: PKR R532W Single Point Percent Activation Assay
as §1
PKR R532W (100 ng/well), Tris pH 7.5 (50 mM), KCl (100 mM), MgCl2 (5 mM), ADP (0.36 mM), PEP (0.1 mM), NADH (180 μM), LDH (0.5 units, Sigma 59023), DTT (1 mM) and BSA (0.03%).

[3] = target: PKR wt (Homo sapiens, UniProt P30613); assay: PKR Wide Type Single Point Percent Activation Assay
Procedure: PKR Wide Type Single Point Percent Activation Assay
as §1
PKR wt (100 ng/well), Tris pH 7.5 (50 mM), KCl (100 mM), MgCl2 (5 mM), ADP (0.48 mM), PEP (0.15 mM), NADH (180 μM), LDH (0.5 units, Sigma 59023), DTT (1 mM) and BSA (0.03%).

[4] = system: PKR T384W; assay: PKR T384W Single Point Percent Activation Assay
Procedure: PKR T384W Single Point Percent Activation Assay
A compound described herein was diluted with DMSO and tested at 1 μM concentration. The enzyme was diluted in 1× Buffer: (100 mM KCl, 50 mM Tris 7.5, 5 mM MgCl2, 1 mM DTT, 0.03% BSA). 2 μL of compound solution was first added into wells, and then 180 μL enzyme solution was added. Assays were assembled except for ADP, and plates were stored for 60 minutes at RT. 20 μL ADP was added to start the assay and assay output was evaluated using OD340 at SpectraMax. The assay was run at room temperature.
PKR T384W soluble (300 ng/well), Tris pH 7.5 (50 mM), KCl (100 mM), MgCl2 (5 mM), ADP (0.08 mM), PEP (0.23 mM), NADH (180 μM), LDH (0.5 units, Sigma 59023), DTT (1 mM) and BSA (0.03%).

Chain of PKR wt (P30613 whole entry): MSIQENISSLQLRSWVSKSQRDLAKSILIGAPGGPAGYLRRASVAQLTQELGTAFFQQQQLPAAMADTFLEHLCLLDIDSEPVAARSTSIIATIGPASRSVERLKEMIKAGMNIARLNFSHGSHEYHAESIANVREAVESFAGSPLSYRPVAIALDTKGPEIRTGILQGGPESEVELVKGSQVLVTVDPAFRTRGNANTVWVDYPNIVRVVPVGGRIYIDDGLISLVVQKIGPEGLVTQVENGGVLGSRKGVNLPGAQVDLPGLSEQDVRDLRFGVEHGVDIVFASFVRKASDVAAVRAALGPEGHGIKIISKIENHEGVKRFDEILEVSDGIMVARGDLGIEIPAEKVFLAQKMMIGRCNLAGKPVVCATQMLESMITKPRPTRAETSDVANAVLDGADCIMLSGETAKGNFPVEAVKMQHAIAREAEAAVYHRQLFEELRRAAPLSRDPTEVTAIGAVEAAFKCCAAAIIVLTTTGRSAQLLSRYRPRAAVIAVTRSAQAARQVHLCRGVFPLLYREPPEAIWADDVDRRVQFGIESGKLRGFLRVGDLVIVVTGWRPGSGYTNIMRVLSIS
Chain of PKR R532W (P30613 whole entry R532W): as the sequence (P30613 whole entry) above, with R532W counted along it
Chain of PKR R510Q (P30613 whole entry R510Q): as the sequence (P30613 whole entry) above, with R510Q counted along it

With `CN1C(=O)COc2ccc(S(=O)(=O)Nc3ccc(F)c(Cl)c3)cc21` the “% Act. R510Q” value [1] was “B (a % activation at 1 μM of from 101 to 500)”, the “% Act. R532W” value [2] was “B (a % activation at 1 μM of from 101 to 500)” and the “% Act. WT” value [3] was “B (a % activation at 1 μM of from 101 to 500)”. For the same compound, the “% Act. T384W” value [4] was “B (a % activation at 1 μM of from 101 to 500)”.
For `O=C(c1c(F)cccc1F)N1CCN(S(=O)(=O)c2ccc3c(c2)OCCO3)CC1`, the “% Act. R510Q” value [1] was “B (a % activation at 1 μM of from 101 to 500)”, the “% Act. R532W” value [2] was “B (a % activation at 1 μM of from 101 to 500)” and the “% Act. WT” value [3] was “B (a % activation at 1 μM of from 101 to 500)”. The “% Act. T384W” value [4] was “B (a % activation at 1 μM of from 101 to 500)”.
`O=C1Oc2ccc(S(=O)(=O)Nc3ccc(F)c(Cl)c3)cc2CN1Cc1ccccc1` was tested, and the “% Act. R510Q” value [1] was “B (a % activation at 1 μM of from 101 to 500)”, the “% Act. R532W” value [2] was “B (a % activation at 1 μM of from 101 to 500)” and the “% Act. WT” value [3] was “B (a % activation at 1 μM of from 101 to 500)”. For the same compound, the “% Act. T384W” value [4] was “B (a % activation at 1 μM of from 101 to 500)”.
In the case of `O=C1CN(Cc2ccccc2)c2cc(S(=O)(=O)Nc3cccc(Cl)c3)ccc2O1`, the “% Act. R510Q” value [1] is reported as “B (a % activation at 1 μM of from 101 to 500)”, the “% Act. R532W” value [2] is reported as “A (a % activation at 1 μM of from 1 to 100)” and the “% Act. WT” value [3] is reported as “A (a % activation at 1 μM of from 1 to 100)”. For the same compound, the “% Act. T384W” value [4] was “A (a % activation at 1 μM of from 1 to 100)”.
`O=C1Nc2cc(S(=O)(=O)Nc3cccc(F)c3)ccc2NC1Cc1ccccc1` (stereo not shown) was tested, and the “% Act. R510Q” value [1] was “B (a % activation at 1 μM of from 101 to 500)”, the “% Act. R532W” value [2] was “B (a % activation at 1 μM of from 101 to 500)” and the “% Act. WT” value [3] was “B (a % activation at 1 μM of from 101 to 500)”. For the same compound, the “% Act. T384W” value [4] was “B (a % activation at 1 μM of from 101 to 500)”.
In the case of `CN1c2ccc(S(=O)(=O)Nc3cccc(F)c3)cc2NC(=O)C1Cc1ccccc1` (stereo not shown), the “% Act. R510Q” value [1] is reported as “B (a % activation at 1 μM of from 101 to 500)”, the “% Act. R532W” value [2] is reported as “B (a % activation at 1 μM of from 101 to 500)” and the “% Act. WT” value [3] is reported as “B (a % activation at 1 μM of from 101 to 500)”. For the same compound, the “% Act. T384W” value [4] was “B (a % activation at 1 μM of from 101 to 500)”.
In the case of `CN1c2cc(S(=O)(=O)Nc3cccc(F)c3)ccc2OC(=O)[C@@H]1Cc1ccccc1`, the “% Act. R510Q” value [1] is reported as “B (a % activation at 1 μM of from 101 to 500)”, the “% Act. R532W” value [2] is reported as “A (a % activation at 1 μM of from 1 to 100)” and the “% Act. WT” value [3] is reported as “B (a % activation at 1 μM of from 101 to 500)”. The “% Act. T384W” value [4] was “B (a % activation at 1 μM of from 101 to 500)”.
